Ends that are not written are not given here. Peptide text beside a SMILES is read from it.
Assays:
[1] = MTT assay, toxicity on HDFa cells; format: cell-based; settings: human, normalized to non-treated cells, read-out: Cell viability
Procedure: (§1) Toxicity of cycled peptides A and B was analyzed on human dermal fibroblasts (HDFa) and adult human epidermal keratinocytes HEKa cells by MTT assay. A stock solution of the peptide was prepared in distilled water at 25 mg/mL. This stock solution was further diluted to obtain the final working concentrations (0.001, 0.005, 0.01, 0.05, 0.1 and 0.5 mg/mL) in the corresponding culture medium. Untreated cells were used as negative control samples (Basal).
(§2) Briefly, HEKa and HDFa cells were seeded in 96-well plates at a concentration of 1×10^5 cells/mL in a final volume of 200 µL of medium (20,000 cells/well). HEKa cells were incubated in Dermal Cell Basal Medium supplemented with the Keratinocytes Growth Kit; and HDFa cells were cultured in Medium 106 supplemented with 2% of LSGS. Cells were incubated at 37°C, 5% CO2 and saturated humidity.
(§3) After 24 h of incubation, cells were treated with different concentrations of each peptide (0.001, 0.005, 0.01, 0.05, 0.1 and 0.5 mg/mL) in triplicates, for MTT evaluation. After 24 h of treatment with the peptide, medium was completely removed, and 100 µL of 0.5 mg/mL MTT solution in supplemented medium were added to each well and cells were incubated at 37°C for 3 h. After incubating with MTT, the medium of each well was aspirated and 150 µL of DMSO were added in order to solubilise the formazan crystals formed. The plates were placed on a shaker for 5 minutes for complete solubilisation of the crystals and then the absorbance at 570 nm of each well was determined, using the microplate reader Multiskan FC, which is directly proportional to the number of living cells in culture.
(§4) Absorbance values were normalized using the data obtained for non-treated cells (control), obtaining the % of viability shown in Tables 1 and 2. Each condition was performed in triplicate (n=3) in 3 independent experiments (N=3).
(§5) Concentrations of peptide for which viability is above 80% are considered safe for efficacy testing. On the contrary, concentrations for which viability goes below 80% are considered potentially toxic and are not used for efficacy testing purposes. Table 1: Toxicity of cycled peptides on HDFa cells.

[2] = MTT assay, toxicity on HEKa cells; format: cell-based; settings: human, normalized to non-treated cells, read-out: Cell viability
Procedure: as §1, §2, §3, §4, §5

Caspase 3 (CASP3) = test: Caspase 3 activity under BFA-induced endoplasmic reticulum stress in HEKa (Caspase-Glo 3/7); format: cell-based, human; settings: BFA-induced ER stress, 24 h, vs BFA-treated cells (Figure 5)
Procedure: Caspase 3 (CASP3) is a protein member of the cysteine-aspartic acid protease family. Sequential activation of caspases plays a central role in the execution-phase of cell apoptosis. It was evaluated the effect of the cycled peptide B on the caspase 3 activity in human epidermal keratinocytes from adult (HEKa) subjected to endoplasmic reticulum (ER) stress.
HEKa cells were seeded in a black 96-well plate at a density of 18.000 cell/well in Dermal Cell Basal Medium (DCBM) and incubated at 37 °C in a humidified atmosphere with 5% CO2. After 24 h of incubation, cells were treated with 0.15 µg/mL BFA alone or in the presence of 0.005 mg/mL of the cycled peptide B and returned to the incubator for 24 h more. Untreated cells (Basal) were used as negative control samples. 24 hours after treatment, caspase 3 activity was evaluated using Caspase-Glo® 3/7 Assay System, following manufacturer instructions.
Each condition was performed at least in triplicates (n=3) in three independent experiments (N=3). For all data, mean values of relative fluorescence units (RFU) of the different experiments and SEM values are shown. All data was normalized as follows: % vs BFA = (RFU treated cells)/(RFU BFA treated cells) × 100 [formula]
Statistical data analysis was performed using Student t-test by comparison of % activity from test substance vs BFA-treated cells, *p<0.05, **p<0.01, ***p<0.001.

CALR = test: RT-qPCR expression of CALR gene in HEKa; settings: 0.01 mg/mL, 24 hours, qPCR (Table 5)
Procedure: HEKa cells were incubated in the presence of 0.01 mg/mL cycled peptide B for 24 hours and HDFa cells were treated with 0.05 mg/mL of cycled peptide B for 6 h. Then, cells were lysed, and RNA was extracted (RNeasy mini kit, Qiagen). Purified RNAs were retro-transcribed (High-capacity cDNA reverse transcription kit, Applied Biosystems). RT-qPCR was performed with the panel of TaqMan assay probes (Thermo Fisher Scientific) using StepOne plus Real time PCR instrument. […] The obtained data were analyzed using the ΔΔCt method, which provides the target gene expression values as fold changes in the treated sample compared with an untreated basal sample. Both samples were normalized with the relative expression of the housekeeping gene GAPDH.
Additionally, expression of CALR after treatment with 0.01 mg/mL of cycled peptides A and B for 24 hours in HEKa cells was analyze by qPCR as described in example 3.

CC(C)C[C@@H]1NC(=O)[C@H](C)NC(=O)[C@H](CCCNC(=N)N)NC(=O)[C@H](Cc2ccccc2)NC(=O)[C@H](Cc2c[nH]c3ccccc23)NC(=O)[C@H](Cc2c[nH]cn2)NC1=O [Peptide A, cyclo-Trp-Phe-Arg-Ala-Leu-His] (cyclo(ALHWFR))
viability at 24 h ([1]; 0.001 mg/mL peptide): 101% | viability at 24 h ([1]; 0.005 mg/mL peptide): 103% | viability at 24 h ([1]; 0.01 mg/mL peptide): 94.5% | viability at 24 h ([1]; 0.05 mg/mL peptide): 103% | viability at 24 h ([1]; 0.1 mg/mL peptide): 92.3% | viability at 24 h ([1]; 0.5 mg/mL peptide): 81.5% | viability at 24 h ([2]; 0.001 mg/mL peptide): 103% | viability at 24 h ([2]; 0.005 mg/mL peptide): 108% | viability at 24 h ([2]; 0.01 mg/mL peptide): 109% | viability at 24 h ([2]; 0.05 mg/mL peptide): 93.8% | viability at 24 h ([2]; 0.1 mg/mL peptide): 88.3% | viability at 24 h ([2]; 0.5 mg/mL peptide): 75% | caspase 3 activity (Caspase 3 (CASP3)): significantly reduce | CALR expression, Effect (CALR): Upregulation | CALR expression, Ratio (CALR; Basal = 1.00): 1.34

FWHALR [Linear peptide B, reference compound]
CALR expression, Effect (CALR): No effect

From patent publication EP4417190A1, “CYCLIC PEPTIDES WITH ANTI-AGING EFFICACY” (Lipotrue, S.L., priority 2023, dated 2024)
